Here are results for 22 compounds from US7998989B2, “2-Imino-1,3-thiazoline-based compounds and T-type calcium channel inhibitors containing the same” (Korea Institute of Science and Technology, priority 2007, dated 2011).

A word on the melting point: it is the temperature of the solid-liquid transition.

Data set [1] concerns the target T1, α1G T-type calcium channel (Homo sapiens, UniProt O43497).
T1 construct: host or cells: HEK293
Kind of data set: Assay for % inhibiting activity against T-type calcium channel using FDSS6000 (fluo-3 calcium imaging, KCl activation). In kind it is cell-based. The settings on record: HEK293, 10 μM; HEK293 cells stably expressing α1G T-type calcium channel and Kir2.1; compounds of the examples; read-out: FDSS (% inhibition)/10uM. An outline of the steps: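 Percent inhibition derived from […] area against untreated control (100%), after 75 s compound pre-exposure and 75 mM KCl activation. Cells: HEK293 with stable α1G plus Kir2.1, fluo-3/AM-labelled (5 μM), assayed in pH 7.4 HEPES containing 10 mM CaCl2.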

T1 sequence (O43497 whole entry): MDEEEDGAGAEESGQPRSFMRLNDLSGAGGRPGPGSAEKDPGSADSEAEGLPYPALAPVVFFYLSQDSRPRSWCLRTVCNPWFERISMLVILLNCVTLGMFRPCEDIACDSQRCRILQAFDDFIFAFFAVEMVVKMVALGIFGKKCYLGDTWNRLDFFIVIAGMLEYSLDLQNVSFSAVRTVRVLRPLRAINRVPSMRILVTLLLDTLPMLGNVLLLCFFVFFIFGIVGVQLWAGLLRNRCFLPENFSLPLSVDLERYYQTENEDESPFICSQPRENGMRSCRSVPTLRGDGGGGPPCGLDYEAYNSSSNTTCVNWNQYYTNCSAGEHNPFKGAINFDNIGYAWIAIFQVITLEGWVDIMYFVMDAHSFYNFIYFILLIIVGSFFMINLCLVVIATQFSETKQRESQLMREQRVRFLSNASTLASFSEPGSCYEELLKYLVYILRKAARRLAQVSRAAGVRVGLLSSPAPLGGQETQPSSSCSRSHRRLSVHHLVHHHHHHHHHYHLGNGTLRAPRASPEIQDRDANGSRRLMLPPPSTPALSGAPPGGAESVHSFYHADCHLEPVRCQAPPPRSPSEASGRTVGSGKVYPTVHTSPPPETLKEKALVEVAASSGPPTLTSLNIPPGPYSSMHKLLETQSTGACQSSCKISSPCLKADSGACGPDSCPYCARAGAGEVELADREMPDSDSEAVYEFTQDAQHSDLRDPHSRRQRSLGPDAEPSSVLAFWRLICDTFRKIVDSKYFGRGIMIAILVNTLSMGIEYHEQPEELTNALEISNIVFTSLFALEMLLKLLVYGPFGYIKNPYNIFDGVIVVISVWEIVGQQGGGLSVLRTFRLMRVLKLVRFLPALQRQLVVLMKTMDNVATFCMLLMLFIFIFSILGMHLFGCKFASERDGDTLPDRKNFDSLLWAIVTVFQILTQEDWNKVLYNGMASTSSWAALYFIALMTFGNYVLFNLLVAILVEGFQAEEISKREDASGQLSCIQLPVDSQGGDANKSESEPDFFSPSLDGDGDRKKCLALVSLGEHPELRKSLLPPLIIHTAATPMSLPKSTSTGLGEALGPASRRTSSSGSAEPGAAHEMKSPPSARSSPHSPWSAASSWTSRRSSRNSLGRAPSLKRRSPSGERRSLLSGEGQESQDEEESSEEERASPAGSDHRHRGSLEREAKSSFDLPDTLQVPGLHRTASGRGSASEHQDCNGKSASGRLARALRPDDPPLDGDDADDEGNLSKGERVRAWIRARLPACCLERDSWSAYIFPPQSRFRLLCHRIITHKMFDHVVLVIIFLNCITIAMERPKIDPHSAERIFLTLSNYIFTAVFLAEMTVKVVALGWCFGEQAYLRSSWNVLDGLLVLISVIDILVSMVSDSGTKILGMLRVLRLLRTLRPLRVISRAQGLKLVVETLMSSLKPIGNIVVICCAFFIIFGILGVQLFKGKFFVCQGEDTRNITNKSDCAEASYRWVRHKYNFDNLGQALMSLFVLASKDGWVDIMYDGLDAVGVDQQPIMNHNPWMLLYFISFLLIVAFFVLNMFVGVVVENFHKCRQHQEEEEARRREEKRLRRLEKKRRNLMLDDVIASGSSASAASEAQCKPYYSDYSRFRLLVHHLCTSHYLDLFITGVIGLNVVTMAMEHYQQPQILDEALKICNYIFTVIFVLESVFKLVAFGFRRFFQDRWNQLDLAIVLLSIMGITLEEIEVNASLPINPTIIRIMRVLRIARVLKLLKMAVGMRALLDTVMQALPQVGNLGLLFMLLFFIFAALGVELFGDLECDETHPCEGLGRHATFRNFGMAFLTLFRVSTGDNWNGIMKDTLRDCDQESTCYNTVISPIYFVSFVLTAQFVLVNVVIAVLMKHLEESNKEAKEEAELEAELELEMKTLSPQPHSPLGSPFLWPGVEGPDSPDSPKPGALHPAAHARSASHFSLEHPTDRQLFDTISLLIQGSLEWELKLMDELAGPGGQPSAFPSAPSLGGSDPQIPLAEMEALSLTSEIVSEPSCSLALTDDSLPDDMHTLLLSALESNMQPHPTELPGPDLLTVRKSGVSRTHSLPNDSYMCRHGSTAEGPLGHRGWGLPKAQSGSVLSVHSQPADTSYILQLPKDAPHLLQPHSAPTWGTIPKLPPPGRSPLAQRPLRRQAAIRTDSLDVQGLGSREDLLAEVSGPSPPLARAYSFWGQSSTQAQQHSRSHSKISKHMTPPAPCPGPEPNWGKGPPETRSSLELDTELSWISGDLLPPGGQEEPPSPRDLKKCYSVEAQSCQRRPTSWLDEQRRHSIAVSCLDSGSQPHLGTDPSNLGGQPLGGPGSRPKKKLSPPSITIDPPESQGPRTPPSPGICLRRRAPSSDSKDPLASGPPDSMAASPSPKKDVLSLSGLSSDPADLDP

For `CCc1ccc(NC(=O)CC2CSC(=NC3CCCCC3)N2Cc2ccccc2)cc1.Cl` (centres unmarked) [KHG24306, (2-cyclohexylimino-3-benzyl-1,3-thiazolidine-4-yl)-N-(4-ethylphenyl)-acetamide hydrochloride], the melting point is 146.4 °C. Further, the inhibition at 10 µM in data set [1] was 53.2%.
`Cl.O=C(CC1CSC(=NC2CCCCC2)N1C1CC1)Nc1ccc(Oc2ccccc2)cc1` (centres unmarked) [KHG24315, (2-cyclohexylimino-3-cyclopropyl-1,3-thiazolidine-4-yl)-N-(4-phenoxyphenyl)-acetamide hydrochloride] showed a melting point of 195 °C. The inhibition at 10 µM in data set [1] is 60.8%.
With `CN1C(=NC2CCCCCC2)SCC1C(=O)NCc1cccc(Cl)c1.Cl` (centres unmarked) [KHG24336, (2-cycloheptylimino-3-methyl-1,3-thiazolidine-4-yl)-N-(3-chlorobenzyl)-carboxamide hydrochloride], the melting point lay in the range of 230 to 231 °C. Further, the inhibition at 10 µM in data set [1] was determined as 60.1%.
For `CN1C(=NC2CCCCCC2)SCC1C(=O)NCc1ccc(Cl)cc1.Cl` (centres unmarked) [KHG24337, (2-cycloheptylimino-3-methyl-1,3-thiazolidine-4-yl)-N-(4-chlorobenzyl)-carboxamide hydrochloride], in that order: 220 to 222 °C and 56.6%.
For `CN1C(=NC2CCCCCC2)SCC1C(=O)NCc1ccc(Cl)c(Cl)c1.Cl` (centres unmarked) [KHG24338, (2-cycloheptylimino-3-methyl-1,3-thiazolidine-4-yl)-N-(3,4-dichlorobenzyl)-carboxamide hydrochloride], in that order: 218 to 219 °C and 70.8%.
With `COc1ccc(CNC(=O)C2CSC(=NC3CCCCCC3)N2C)cc1.Cl` (centres unmarked) [KHG24339, (2-cycloheptylimino-3-methyl-1,3-thiazolidine-4-yl)-N-(4-methoxybenzyl)-carboxamide hydrochloride], the melting point was 156 to 159 °C. In addition, in data set [1], the inhibition at 10 µM worked out at 44.2%.
Consider `CCN1C(=NC2CCCCC2)SCC1CC(=O)Nc1ccc(F)cc1.Cl` (centres unmarked) [KHG24403, (2-cyclohexylimino-3-ethyl-1,3-thiazolidine-4-yl)-N-(4-fluorophenyl)-acetamide hydrochloride], for which the melting point came out at 196.5 °C. Besides, the inhibition at 10 µM in data set [1] worked out at 49.1%.
For `CCCN1C(=NC2CCCCC2)SCC1CC(=O)Nc1ccc(C(F)(F)F)cc1.Cl` (centres unmarked) [KHG24404, [2-cyclohexylimino-3-(n-propyl)-1,3-thiazolidine-4-yl]-N-(4-trifluoromethylphenyl)-acetamide hydrochloride], in that order: 173.6 to 174.8 °C and 64.7%.
For `CCCN1C(=NC2CCCCC2)SCC1CC(=O)Nc1ccc(C)c(Cl)c1.Cl` (centres unmarked) [KHG24405, (2-cyclohexylimino-3-(n-propyl)-1,3-thiazolidine-4-yl)-N-(3-chloro-4-methylphenyl)-acetamide hydrochloride], in that order: 204.9 °C and 68.4%.
For `CCCCc1ccc(NC(=O)CC2CSC(=NC3CCCCC3)N2Cc2ccccc2)cc1.Cl` (centres unmarked) [KHG24406, (2-cyclohexylimino-3-benzyl-1,3-thiazolidine-4-yl)-N-(4-n-butylphenyl)-acetamide hydrochloride], in that order: 156.2 °C and 34.4%.
In turn, `Cl.O=C(CC1CSC(=NC2CCCCC2)N1Cc1ccccc1)Nc1ccc(C(F)(F)F)cc1` (centres unmarked) [KHG24407, (2-cyclohexylimino-3-benzyl-1,3-thiazolidine-4-yl)-N-(4-trifluoromethylphenyl)-acetamide hydrochloride] returned a melting point of 238.5 °C. The inhibition at 10 µM in data set [1] worked out at 48.7%.
`Cl.O=C(CC1CSC(=NC2CCCCC2)N1Cc1ccccc1)Nc1cc(Cl)ccc1F` (centres unmarked) [KHG24408, (2-cyclohexylimino-3-benzyl-1,3-thiazolidine-4-yl)-N-(5-chloro-2-fluorophenyl)-acetamide hydrochloride] displayed a melting point of 194.8 °C. Further, in data set [1], the inhibition at 10 µM was determined as 32.6%.
Take `CCN1C(=NC2CCCCC2)SCC1CC(=O)Nc1cc(Cl)cc(Cl)c1.Cl` (centres unmarked) [KHG24414, (2-cyclohexylimino-3-ethyl-1,3-thiazolidine-4-yl)-N-(3,5-dichlorophenyl)-acetamide hydrochloride]: the melting point came out at 100.5 °C. Further, the inhibition at 10 µM in data set [1] worked out at 61%.
In the case of `CCCN1C(=NC2CCCCC2)SCC1CC(=O)Nc1cc(Cl)cc(Cl)c1.Cl` (centres unmarked) [KHG24415, [2-cyclohexylimino-3-(n-propyl)-1,3-thiazolidine-4-yl]-N-(3,5-dichlorophenyl)-acetamide hydrochloride], the melting point came to 109.2 °C. Besides, the inhibition at 10 µM in data set [1] was 64.2%.
For `CCCCN1C(=NC2CCCCC2)SCC1CC(=O)Nc1cc(Cl)cc(Cl)c1.Cl` (centres unmarked) [KHG24416, [2-cyclohexylimino-3-(n-butyl)-1,3-thiazolidine-4-yl]-N-(3,5-dichlorophenyl)-acetamide hydrochloride], in that order: 153 to 154 °C and 59.8%.
For `CN1C(=NC23CC4CC(CC(C4)C2)C3)SCC1CC(=O)Nc1cc(Cl)cc(Cl)c1.Cl` (centres unmarked) [KHG24417, [2-(1-adamantyl)imino-3-methyl-1,3-thiazolidine-4-yl]-N-(3,5-dichlorophenyl)-acetamide hydrochloride], in that order: 238 to 240 °C and 59.1%.
With `Cc1ccc(NC(=O)CC2CSC(=NC34CC5CC(CC(C5)C3)C4)N2C)c(Cl)c1.Cl` (centres unmarked) [KHG24418, [2-(1-adamantyl)imino-3-methyl-1,3-thiazolidine-4-yl]-N-(2-chloro-4-methylphenyl)-acetamide hydrochloride], the melting point was 234 to 236 °C. In data set [1], the inhibition at 10 µM is 56.9%.
In the case of `COc1ccc(NC(=O)CC2CSC(=NC34CC5CC(CC(C5)C3)C4)N2C)cc1.Cl` (centres unmarked) [KHG24419, [2-(1-adamantyl)imino-3-methyl-1,3-thiazolidine-4-yl]-N-(4-methoxyphenyl)-acetamide hydrochloride], the melting point fell in the range of 227 to 229 °C. Besides, the inhibition at 10 µM in data set [1] turned out to be 46.7%.
`CCN1C(=NC2CCCCC2)SCC1CC(=O)Nc1ccc(C)cc1Cl.Cl` (centres unmarked) [KHG24420, (2-cyclohexylimino-3-ethyl-1,3-thiazolidine-4-yl)-N-(2-chloro-4-methylphenyl)-acetamide hydrochloride] came in with a melting point of 115 °C. For the same compound, in data set [1], the inhibition at 10 µM came to 58.5%.
For `CCCCN1C(=NC2CCCCC2)SCC1CC(=O)Nc1ccc(C)cc1Cl.Cl` (centres unmarked) [KHG24421, (2-cyclohexylimino-3-(n-butyl)-1,3-thiazolidine-4-yl)-N-(2-chloro-4-methylphenyl)-acetamide hydrochloride], in that order: 143 to 144 °C and 65.8%.
`Cl.O=C(CC1CSC(=NC2CCCCC2)N1Cc1ccccc1)Nc1cc(Cl)cc(Cl)c1` (centres unmarked) [KHG24422, (2-cyclohexylimino-3-benzyl-1,3-thiazolidine-4-yl)-N-(3,5-dichlorophenyl)-acetamide hydrochloride] gave a melting point of 178 to 179 °C. The inhibition at 10 µM in data set [1] came to 46.3%.
For `CN1C(=NC2CCCCCC2)SCC1CC(=O)Nc1ccc([N+](=O)[O-])cc1.Cl` (centres unmarked) [KHG24445, (2-cycloheptylimino-3-methyl-1,3-thiazolidine-4-yl)-N-(4-nitrophenyl)-acetamide hydrochloride], in that order: 242 °C and 50.8%.
